From paper PMC10743026, “Virtual Screening Technology for Two Novel Peptides in Soybean as Inhibitors of α-Amylase and α-Glucosidase” (Foods, 2023)
Like-named read-outs stand apart in the source and are kept apart here. One block for each substance: values may come before it. Ends that are not written are not given here.

Key:
[1] = molecular target: T1, porcine pancreatic α-amylase (Sus scrofa, UniProt P00690); assay: α-Amylase inhibition assay in vitro (starch/DNS); format: biochemical; conditions: synthetic peptides; enzyme 0.5 U/mL, starch 10 mg/mL, PBS pH 6.9–7.2; 20 min premix, 10 min at 37 °C; DNS, 540 nm; mean ± standard error of the mean, three parallels
T1 construct: purchased Sigma-Aldrich (St. Louis, MO, USA)
T1 sequence (P00690 16-511): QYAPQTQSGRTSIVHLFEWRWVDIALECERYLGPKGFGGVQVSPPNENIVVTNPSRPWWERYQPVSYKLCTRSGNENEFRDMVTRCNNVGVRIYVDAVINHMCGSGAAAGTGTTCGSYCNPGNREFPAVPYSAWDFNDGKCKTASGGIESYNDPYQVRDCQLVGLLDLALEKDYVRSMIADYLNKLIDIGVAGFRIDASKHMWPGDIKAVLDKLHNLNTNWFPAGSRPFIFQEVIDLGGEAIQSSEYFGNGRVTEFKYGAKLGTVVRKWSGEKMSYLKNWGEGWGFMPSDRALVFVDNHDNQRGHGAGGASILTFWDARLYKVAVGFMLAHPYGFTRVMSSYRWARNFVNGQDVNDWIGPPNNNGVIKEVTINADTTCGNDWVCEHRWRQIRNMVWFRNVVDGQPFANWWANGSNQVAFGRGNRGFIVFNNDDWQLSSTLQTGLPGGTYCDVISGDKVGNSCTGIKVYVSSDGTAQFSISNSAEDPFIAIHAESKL
Text: p-Nitrophenyl-α-D-glucopyranoside (pNPG) and soy protein isolate were obtained from Mackiln (Shanghai, China). DL-dithiothreitol (DTT), iodoacetamide (IAA), formic acid (FA), acetonitrile (ACN), methanol, and porcine pancreatic amylase (PPA) (>10 units/mg) were acquired from Sigma-Aldrich (St. Louis, MO, USA). α-Glucosidase (from Saccharomyces cerevisiae, 26.5 units/mg) and trypsin (from porcine pancreas, 250 units/mg) were obtained from Yuanye Biotech (Shanghai, China). DNS solution was purchased from Rhawn (Shanghai, China). Oligopeptides were prepared with LifeTein (Beijing, China). High-performance liquid chromatography (HPLC)-grade acetonitrile, methanol, and formic acid were obtained from Merck (Darmstadt, Germany). The other chemicals were of analytical grade.
Methods refer to Admassu’s and make appropriate modifications. The starch solution (10 mg/mL), enzyme solution (0.5 U/mL), and soybean peptide solution at different concentrations (5, 10, 15, 20, 25 mg/mL) were prepared, the solvent was PBS (pH 6.9–7.2). […] The absorbance was measured at 540 nm, and the α-amylase inhibition ratio was calculated according to Formula (1):(1) α−Amylase Inhibition Ratio=1−A1−A2/A3−A4×100% where A1, A2, A3, and A4 are the absorbance values of the sample, sample blank, negative control, and blank, respectively.

α-amylase = conditions: cited from earlier work
Text: (§1) Peptides are obtained from the decomposition of proteins. Standard methods for preparing peptides in the food industry include enzymatic hydrolysis and microbial hydrolysis.

α-glucosidase = conditions: cited from earlier work
Text: as §1

[2] = peptide from egg albumin, ref [19]
[3] = peptide from Camellia seed cake, ref [15]

IC50 [1]: 5580 ± 130 µM
Substance: SRNPIYSN

IC50 [1]: 3080 ± 150 µM
Substance: LDQTPRVF

Substance: GGSK [oligopeptide isolated from Porphyra spp]
inhibition mode on α-amylase (α-amylase; peptides from Porphyra spp., ref [11]): could still bind with the substrate after binding with α-amylase

Substance: KLPGF [peptide segment identified in egg albumin]
IC50 (α-glucosidase; [2]): 59.5 µM | IC50 (α-amylase; [2]): 120 µM

Substance: GPPGPA [identified from the skin collagen of the Chinese giant salamander]
inhibition type on α-glucosidase (α-glucosidase; peptide from skin collagen of Chinese giant salamander, ref [13]): competitive inhibitory effects

Substance: LLLLPSYSEF [identified from Camellia seed cake]
IC50 (α-glucosidase; [3]): 1110 µM | inhibition type on α-glucosidase (α-glucosidase; [3]): mixed inhibition
